Experimental findings from patent publication US12240844B2 (Voronoi, Inc., priority 2019, dated 2025) are described below.

The subject of one assay is IL-6. Briefly: IL-6 secretion inhibition in LPS-treated THP-1 cells (ELISA). In kind it is cell-based. To be noted: Homo sapiens, compound 0.5 μM, LPS 500 ng/ml, 24 hours, read-out: THP1/IL6 (% inhib). As for the experimental part: (§1) In order to evaluate the cytokine secretion inhibitory efficacy of mononuclear cells, THP-1 cells (ATCC, #TIB-202) as a human-derived monocyte cell line were cultured in RPMI-1640 (Hyclone, SH30027.01) media in which 10% fetal bovine serum (Hyclone, SH30084.03), 1% penicillin streptomycin (Welgene, LS202-02) and 50 μM 2-Mercaptoethanol (Gibco, #21985023) were contained. In the test, 1.5-2×10^5 cells/250 μl per each well were dispensed in a 48-well plate (SPL, #30048) and incubated in an incubator at 37° C. and 5% CO2 for 16 hours, and then the compounds were diluted in DMSO so that the final concentration was 0.5 μM. It was treated with Lipopolysaccharides (LPS) (sigma, #L6529) […]. After treatment with the compound, the LPS was treated so that the final concentration was 500 ng/ml, and then the cell culture fluid was collected after culturing for 24 hours, and the degrees of the cytokines IL-6 (R&D system, #D6050) and TNF-α (R&D system, #DTA00D) contained in the culture fluid were collected using each ELISA kit. After performing the experiment according to the manufacturer's instructions, the absorbance at 450 nm was measured and analyzed using a microplate reader.

Another assay has as its target LRRK2 (Homo sapiens, UniProt Q5S007). Briefly: LRRK2 enzyme inhibition, ADP-Glo kinase assay. Further details: purchased Invitrogen PR8604B. Type of assay: biochemical. In a few lines:
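ADP-Glo luminescence read after 2 h at 25° C, 10 μM ATP, 25 ng purified human LRRK2 and […] substrate in Tris-HCl pH7.4 buffer with MgCl2, BSA, DTT. Twelve final concentrations, 50 μM down to 0.000001024 μM; IC50 (nM) from inhibition relative to untreated solvent control.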
(In general: ADP-Glo first removes unused ATP, then detects ADP through luciferase.)

Assay [1] addresses T1, human GST-DYRK1A (full length) (Homo sapiens, UniProt Q13627).
T1 construct: purified human GST-DYRK1A (full length, Thermo scientifics) enzyme; GST; purchased Thermo scientifics
The assay can be described thus: GST-DYRK1A enzyme inhibition, ADP-Glo kinase assay. In kind it is biochemical. To be noted: read-out: DYRK1 IC50. The essentials:
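ADP-Glo luminescence quantified kinase activity after a 1 h, 25° C reaction of 10 ng full-length GST-tagged human DYRK1A, substrate and 10 uM ATP in Tris-HCl buffer pH 7.4 with MgCl2, BSA and DTT. Triplicate IC50 values (nM) calculated relative to untreated solvent control.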

The target in another assay is LRRK2 (G2019S) (Homo sapiens, UniProt Q5S007, G2019S). Briefly: LRRK2 G2019S enzyme inhibition, ADP-Glo kinase assay. Type of assay: biochemical. Further details: purchased SignalChem L10-12GG. The essentials: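 Activity read as ADP-Glo luminescence, normalized to untreated solvent control, with IC50 (nM) fitted over 12 final compound levels (top 50 μM). Reaction: 2 h, 25° C, human LRRK2 G2019S 16 ng, ATP 25 μM, substrate 0.2 μg, in Tris-HCl pH 7.4 with MgCl2, BSA and DTT.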

For a further assay, the target named is T2, human GST-CLK1 (129-end) (Homo sapiens, UniProt P49759).
T2 construct: purified human GST-CLK1 (129-end, Signalchem) enzyme; GST; purchased Signalchem
Briefly: GST-CLK1 enzyme inhibition, ADP-Glo kinase assay. In kind it is biochemical. As to conditions: ATP 10 uM. The essentials: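 ADP formation was read by ADP-Glo luminescence after 1 h at 25° C with 3 ng human GST-CLK1 (129-end), substrate and 10 uM ATP in Tris pH 7.4 buffer containing MgCl2, BSA and DTT. Inhibition relative to untreated solvent control gave IC50 (nM), run in triplicate.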

In another assay the test system is TNF-α. The assay can be described thus: TNF-α secretion inhibition in LPS-treated THP-1 cells (ELISA). In kind it is cell-based. To be noted: Homo sapiens, compound 0.5 μM, LPS 500 ng/ml, 24 hours, read-out: THP-1/TNF-a (% inhib). As for the experimental part:
as §1
For orientation: ELISA stands for enzyme-linked immunosorbent assay.

The test system of a further assay is MDA-MB-231 cell line. Briefly: MDA-MB-231 cancer cell proliferation inhibition (Cell Titer-Glo). Type of assay: cell-based. As to conditions: Homo sapiens, MDA-MB-231 triple-negative breast cancer cell line, 72 hours. In a few lines:
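GI50 comes from CellTiter-Glo luminescence, read 10 min after reagent addition at RT, following 72 h compound treatment. Eleven concentrations were used (⅓ steps, highest 10 μM final) on 2000 cells/well. MDA-MB-231 and MDA-MB-468 were grown in DMEM, SHP-77 in RPMI.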

The next assay deals with human DYRK1A and Tau. The assay can be described thus: Tau phosphorylation inhibition, ClariCELL Kinase Cell-Based Assay (Carnabio). As for the experimental part: Tau phosphorylation inhibitory efficacy was measured using the ClariCELL™ Kinase Cell-Based Assay service of Carnabio, located in the United States. The compounds are exposed to human embryonic kidney ([…]) cells transiently expressing human DYRK1A and Tau, and then the cells are lysed to release cellular proteins. At this time, the released Tau is captured on a plate, and the degree of phosphorylation is quantified by ELISA using an antibody specific for Tau phosphorylation.

LRRK2 (G2019S), sequence (Q5S007 970-2527 G2019S limits assumed): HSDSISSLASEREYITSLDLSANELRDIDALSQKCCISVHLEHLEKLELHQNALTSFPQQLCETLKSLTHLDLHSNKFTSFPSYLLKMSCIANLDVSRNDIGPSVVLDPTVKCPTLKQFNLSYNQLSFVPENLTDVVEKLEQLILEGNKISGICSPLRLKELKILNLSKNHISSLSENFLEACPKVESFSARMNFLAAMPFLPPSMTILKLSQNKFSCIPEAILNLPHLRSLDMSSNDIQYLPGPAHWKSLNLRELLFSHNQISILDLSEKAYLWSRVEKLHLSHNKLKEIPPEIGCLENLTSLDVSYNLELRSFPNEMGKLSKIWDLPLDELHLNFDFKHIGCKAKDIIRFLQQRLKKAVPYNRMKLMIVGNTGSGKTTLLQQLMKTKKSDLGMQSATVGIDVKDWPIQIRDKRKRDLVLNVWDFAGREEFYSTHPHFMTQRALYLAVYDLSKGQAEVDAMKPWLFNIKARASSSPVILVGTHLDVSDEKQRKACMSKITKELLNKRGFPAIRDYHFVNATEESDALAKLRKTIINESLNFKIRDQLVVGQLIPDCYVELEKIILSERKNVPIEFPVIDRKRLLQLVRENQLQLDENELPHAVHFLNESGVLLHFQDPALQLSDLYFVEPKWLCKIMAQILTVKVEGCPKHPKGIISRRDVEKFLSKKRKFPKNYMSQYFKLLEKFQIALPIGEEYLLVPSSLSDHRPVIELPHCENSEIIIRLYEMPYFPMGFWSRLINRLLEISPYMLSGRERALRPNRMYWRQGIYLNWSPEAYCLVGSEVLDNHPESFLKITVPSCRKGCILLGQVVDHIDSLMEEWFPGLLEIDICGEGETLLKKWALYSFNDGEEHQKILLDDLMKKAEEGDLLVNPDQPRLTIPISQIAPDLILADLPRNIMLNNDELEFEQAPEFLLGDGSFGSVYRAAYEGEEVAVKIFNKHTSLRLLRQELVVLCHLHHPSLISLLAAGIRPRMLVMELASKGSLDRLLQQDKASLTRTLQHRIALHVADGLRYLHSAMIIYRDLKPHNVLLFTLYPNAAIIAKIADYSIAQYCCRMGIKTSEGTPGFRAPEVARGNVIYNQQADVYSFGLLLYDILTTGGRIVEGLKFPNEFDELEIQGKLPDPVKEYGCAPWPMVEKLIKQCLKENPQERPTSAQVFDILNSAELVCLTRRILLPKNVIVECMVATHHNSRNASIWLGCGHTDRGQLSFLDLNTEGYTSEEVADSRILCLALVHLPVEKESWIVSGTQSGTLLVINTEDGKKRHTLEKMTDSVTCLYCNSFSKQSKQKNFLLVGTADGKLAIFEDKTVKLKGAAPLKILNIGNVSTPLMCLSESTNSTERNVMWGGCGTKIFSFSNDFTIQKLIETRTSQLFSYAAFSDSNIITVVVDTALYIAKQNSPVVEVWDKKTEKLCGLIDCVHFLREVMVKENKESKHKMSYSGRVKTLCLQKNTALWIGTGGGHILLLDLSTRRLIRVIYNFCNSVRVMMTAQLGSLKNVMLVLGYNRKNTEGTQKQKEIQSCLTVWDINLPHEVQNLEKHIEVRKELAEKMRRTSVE
T2 sequence (P49759 129-484 limits assumed): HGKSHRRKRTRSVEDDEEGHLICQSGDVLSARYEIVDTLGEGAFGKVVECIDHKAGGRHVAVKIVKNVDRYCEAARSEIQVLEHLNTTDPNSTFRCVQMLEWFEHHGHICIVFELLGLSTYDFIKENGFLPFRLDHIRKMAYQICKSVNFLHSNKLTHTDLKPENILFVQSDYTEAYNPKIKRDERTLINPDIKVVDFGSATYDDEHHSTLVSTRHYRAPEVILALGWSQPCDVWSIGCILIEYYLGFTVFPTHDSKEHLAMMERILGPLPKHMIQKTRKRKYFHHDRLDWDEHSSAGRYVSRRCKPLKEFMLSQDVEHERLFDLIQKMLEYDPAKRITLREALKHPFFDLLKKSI
LRRK2, sequence (Q5S007 970-2527 limits assumed): as the sequence (Q5S007 970-2527 G2019S limits assumed) above, with S1050G counted along it

For `CNc1cc(Nc2ccc(C(=O)N3CCOCC3)c3c2OCO3)nc2[nH]cc(C(F)(F)F)c12` [Example 38, (7-((4-(methylamino)-3-(trifluoromethyl)-1H-pyrrolo[2,3-b]pyridin-6-yl)amino)benzo [d] [1,3]dioxol-4-yl)(morpholino) methanone], the inhibition at 0.5 µM in the assay with IL-6 is 36.1%; in the assay on TNF-α, 32.8%. The half-maximal inhibitory concentration (IC50) (as a rule, the concentration needed to halve the response being measured) against LRRK2 was 0.101 to 0.3 µM; in assay [1], < 0.1 µM; against LRRK2 (G2019S), < 0.1 µM; on human GST-CLK1 (129-end), < 0.1 µM.
`COCCNc1cc(Nc2ccc(C(=O)N3CCOCC3)c3c2OCC3)nc2[nH]cc(C(F)(F)F)c12` [Example 54, (7-((4-((2-methoxyethyl)amino)-3-(trifluoromethyl)-1H-pyrrolo[2,3-b]pyridin-6-yl)amino)-2,3-dihydrobenzofuran-4-yl)(morpholino) methanone]: in the assay on IL-6, the inhibition at 0.5 µM is 46.9%. Besides, the IC50 (against LRRK2; in assay [1]; on LRRK2 (G2019S); on human GST-CLK1 (129-end)) was < 0.1 µM throughout.
Consider `CS(=O)(=O)CCNc1cc(Nc2ccc(C(=O)N3CCOCC3)c3c2OCCO3)nc2[nH]cc(C(F)(F)F)c12` [Example 157, (8-((4-((2-(methylsulfonyl)ethyl)amino)-3-(trifluoromethyl)-1H-pyrrolo[2,3-b]pyridin-6-yl)amino)-2,3-dihydrobenzo [b] [1,4]dioxin-5-yl)(morpholino) methanone], for which the inhibition at 0.5 µM in the assay on IL-6 came out at 29.1%; with TNF-α, 31%. Also, the IC50 (on LRRK2; in assay [1]; on LRRK2 (G2019S); on human GST-CLK1 (129-end)) was < 0.1 µM each time.
As for `CNc1cc(Nc2ccc(P3(=O)CCN(C4COC4)CC3)cc2OC)nc2[nH]cc(C(F)(F)F)c12` [Example 212, 4-(3-methoxy-4-((4-(methylamino)-3-(trifluoromethyl)-1H-pyrrolo[2,3-b]pyridin-6-yl)amino)phenyl)-1-(oxetan-3-yl)-1,4-azaphosphinane 4-oxide], the inhibition at 0.5 µM turned out to be 29.1% in the assay with IL-6 and 2.7% in the assay with TNF-α. Moreover, the IC50 (at LRRK2; in assay [1]; at human GST-CLK1 (129-end)) was < 0.1 µM throughout. The GI50 (commonly the concentration that inhibits growth by half) with MDA-MB-231 cell line was 0.301 to 1 µM.
As for `CCNc1cc(Nc2ccc(C(=O)N3CC[C@@H](N4CCOCC4)C3)c3c2OCC3)nc2[nH]cc(C(F)(F)F)c12` [Example 213, (R)-(7-((4-(ethylamino)-3-(trifluoromethyl)-1H-pyrrolo[2,3-b]pyridin-6-yl)amino)-2,3-dihydrobenzofuran-4-yl)(3-morpholinopyrrolidin-1-yl)methanone], the results for the inhibition at 0.5 µM with IL-6 and in the assay with TNF-α were 3.9% and 2.6%, respectively. Also, the IC50 at LRRK2 is 0.101 to 0.3 µM; in assay [1], 0.101 to 0.3 µM; against LRRK2 (G2019S), 0.101 to 0.3 µM; against human GST-CLK1 (129-end), < 0.1 µM.
Turning to `CNc1cc(Nc2ccc(C(=O)N3CCC(N4CCOCC4)CC3)c3c2OCO3)nc2[nH]cc(C(F)(F)F)c12` [Example 235, (7-((4-(methylamino)-3-(trifluoromethyl)-1H-pyrrolo[2,3-b]pyridin-6-yl)amino)benzo[d][1,3]dioxol-4-yl)(4-morpholinopiperidin-1-yl)methanone], the inhibition at 0.5 µM with IL-6 was determined as 22.9%; in the assay with TNF-α, 36.3%. The half-inhibitory concentration (IC50) (against LRRK2; in assay [1]; at human GST-CLK1 (129-end)) was < 0.1 µM in each case.
With `CCNc1cc(Nc2ccc(C(=O)N3CCC(N4CCN(C)CC4)CC3)c3c2OCC3)nc2[nH]cc(C(F)(F)F)c12` [Example 247, (7-((4-(ethylamino)-3-(trifluoromethyl)-1H-pyrrolo[2,3-b]pyridin-6-yl)amino)-2,3-dihydrobenzofuran-4-yl)(4-(4-methylpiperazin-1-yl)piperidin-1-yl)methanone], the inhibition at 0.5 µM in the assay with IL-6 came out at 31.9%; in the assay with human DYRK1A and Tau it was 76.8%; in the assay on TNF-α it was 15.5%. For the same molecule, the IC50 (in assay [1]; against LRRK2 (G2019S); against human GST-CLK1 (129-end)) was < 0.1 µM throughout. Also, the inhibition at 0.25 µM with human DYRK1A and Tau worked out at 52.3%. Also, the inhibition at 1 µM in the assay with human DYRK1A and Tau is 104%.
In the case of `CCNc1cc(Nc2ccc(C(=O)N3CCC(N(C)C)CC3)c3c2OCC3)nc2[nH]cc(C(F)(F)F)c12` [Example 249, (4-(dimethylamino)piperidin-1-yl)(7-((4-(ethylamino)-3-(trifluoromethyl)-1H-pyrrolo[2,3-b]pyridin-6-yl)amino)-2,3-dihydrobenzofuran-4-yl)methanone], the inhibition at 0.5 µM in the assay on IL-6 was 60.3%; in the assay on human DYRK1A and Tau, 76.9%; with TNF-α, 10.1%. Besides, the IC50 (in assay [1]; against LRRK2 (G2019S); against human GST-CLK1 (129-end)) was < 0.1 µM each time. Besides, the inhibition at 0.25 µM with human DYRK1A and Tau was 62.4%. For the same molecule, the inhibition at 1 µM in the assay on human DYRK1A and Tau amounted to 82.9%.
As for `CCNc1cc(Nc2ccc(C(=O)N3CCN(CCO)CC3)c3c2OCC3)nc2[nH]cc(C(F)(F)F)c12` [Example 253, (7-((4-(ethylamino)-3-(trifluoromethyl)-1H-pyrrolo[2,3-b]pyridin-6-yl)amino)-2,3-dihydrobenzofuran-4-yl)(4-(2-hydroxyethyl)piperazin-1-yl)methanone], the figures for the inhibition at 0.5 µM in the assay with IL-6 and with TNF-α were 49.2% and 9.83%, respectively. Further, the IC50 (in assay [1]; against LRRK2 (G2019S); on human GST-CLK1 (129-end)) was < 0.1 µM throughout.
For `CCNc1cc(Nc2ccc(C(=O)N3CCN(CC4CC4)CC3)c3c2OCC3)nc2[nH]cc(C(F)(F)F)c12` [Example 257, (4-(cyclopropylmethyl)piperazin-1-yl)(7-((4-(ethylamino)-3-(trifluoromethyl)-1H-pyrrolo[2,3-b]pyridin-6-yl)amino)-2,3-dihydrobenzofuran-4-yl)methanone], the results for the inhibition at 0.5 µM in the assay with IL-6 and in the assay with TNF-α were 44% and 7.88%, respectively. Moreover, the IC50 (in assay [1]; at LRRK2 (G2019S); against human GST-CLK1 (129-end)) was < 0.1 µM in each case.
With `CCNc1cc(Nc2ccc(C(=O)N3CCC(N4CCN(C5CC5)CC4)CC3)c3c2OCC3)nc2[nH]cc(C(F)(F)F)c12` [Example 264, (4-(4-cyclopropylpiperazin-1-yl)piperidin-1-yl)(7-((4-(ethylamino)-3-(trifluoromethyl)-1H-pyrrolo[2,3-b]pyridin-6-yl)amino)-2,3-dihydrobenzofuran-4-yl)methanone], the inhibition at 0.5 µM with IL-6 amounted to 45.5%; in the assay with TNF-α it was 11.2%. For the same molecule, the IC50 (in assay [1]; at LRRK2 (G2019S); against human GST-CLK1 (129-end)) was < 0.1 µM throughout.
